Assay results as given in US8143282B2, “Heterocyclic compounds” (S*BIO Pte Ltd., priority 2005, dated 2012).

Legend:
[1] = system: Colo205 cells; experiment: Cell-based proliferation assay for GI50 (CyQUANT), Colo205; conditions: Homo sapiens, COLO 205, 96 h treatment, read-out: Cellular or Growth Inhibition Activity in Colo205 cells, GI50
Summary of the method: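 Cells were seeded at 1000 (PC3), 5000 (Colo205), 6000 (HCT116) or 4000 (HEP3B) per well and left 24 h at 37° C. Compound treatment lasted 96 h. Growth was read by CyQUANT, and GI50 (50% growth inhibition) came from dose-response curves.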

[2] = system: A2780; experiment: Cell-based proliferation assay for GI50 (CyQUANT), A2780; conditions: Homo sapiens; A2780, 96 h treatment; read-out: Cellular or Growth Inhibition Activity, GI50, A2780
Description: (§1) Human colon cancer cell lines (Colo205, HCT116), Ovarian cancer cell line (A2780), Hepatoma cell line (HEP3B), Prostate cancer cell line (PC3) were obtained from ATCC or ECACC. Colo205 cells were cultivated in RPMI 1640 containing 2 mM L-Glutamine, 5% FBS, 1.0 mM Na Pyruvate, 1 U/ml of penicillin and 1 μg of streptomycin. HCT116 cells were cultivated in McCoy's containing RPMI 1640 containing 2 mM L-Glutamine, 5% FBS, 1 U/ml of penicillin and 1 μg of streptomycin. A2780 cells were cultivated in RPMI 1640 containing 2 mM L-Glutamine, 5% FBS, 1 U/ml of penicillin and 1 μg of streptomycin. HEP3B cells were cultivated in EMEM containing 2 mM L-glutamine, 5% FBS, 1% non essential amino acid, 1 mM Na Pyruvate, 1 U/ml of penicillin and 1 μg of streptomycin. PC3 cells were cultivated in F12K, 2 mM L-glutamine, 5% FBS, 1 U/ml of penicillin and 1 μg of streptomycin. PC3, Colo205, and HCT116 cells were seeded in 96-wells plate at 1000, 5000 and 6000 cells per well respectively. A2780 and HEP3B cells were seeded in 96-wells plate at 4000 cells per well respectively. The plates were incubated at 37° C., 5% CO2, for 24 h. Cells were treated with compounds at various concentrations for 96 h. Cell growth was then monitored using CyQUANT® cell proliferation assay (Invitrogen Pte Ltd). Dose response curves were plotted to determine GI50 values for the compounds using XL-fit (ID Business Solution, Emeryville, Calif.). GI50 is defined as the concentration of compound required for 50% inhibition of cell growth.

[3] = system: PC3; experiment: Cell-based proliferation assay for GI50 (CyQUANT), PC3; conditions: Homo sapiens, PC-3; PC3, 96 h treatment; read-out: Cellular or Growth Inhibition Activity, GI50, PC3
Description: as §1

[4] = system: HCT116; experiment: Cell-based proliferation assay for GI50 (CyQUANT), HCT116; conditions: Homo sapiens, HCT-116; HCT116, 96 h treatment; read-out: Cellular or Growth Inhibition Activity, GI50, HCT116
Description: as §1

[5] = molecular target: T1, HDAC1 enzyme (Homo sapiens, UniProt Q13547); experiment: In vitro HDAC assay for determination of IC50 values (BIOMOL fluorescent-based HDAC activity assay); format: biochemical
T1 construct: Amplification of human HDAC1 coding region from this cDNA library was cloned separately into the baculovirus expression pDEST20 vector; made in house; host or cells: SF9 insect cells, pDEST20-HDAC1 baculovirus
Summary of the method: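 Recombinant GST-HDAC1, cloned from SW620 cDNA and expressed in Sf9 cells, tested in a fluorogenic Fluor de Lys deacetylase assay. Developer was added for 10 min and fluorescence read at 360/460 nm. IC50 came from concentration series.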

[6] = Measurement of microsomal stability; format: in vitro ADME; conditions: pooled human liver microsomes, pH 7.4; human liver microsome, 5 μM test compound, 1.0 mg/ml microsomal protein
Description: Metabolic stability measurements in the in vitro using liver microsomes aids in the prediction of the in vivo hepatic clearance and the compound stability towards phase I biotransformation reactions mediated by P450 isozymes.
Pooled human liver microsome (HLM was purchased from BD Gentest (BD BioSciences). The incubations consisted of test compound (5 μM) or control compound (Verapamil), NADPH-generating system solution A (25 mM NADP^+, 66 mM glucose-6-phosphate, 66 mM MgCl2 in H2O), NADPH-generating system solution B (40 U/ml glucose-6-phosphate dehydrogenase in 5 mM sodium citrate) and 1.0 mg/ml microsomal protein, respectively, in 100 mM potassium phosphate buffer (pH 7.4). Samples were incubated for 0, 5, 15, 30, 45, 60 min. Reaction was terminated with ice-cold 80% acetonitrile and 20% DMSO. Samples were subsequently centrifuged at 4° C. for 15 min at 2,000 rpm. 100 μL of the supernatant was transferred to the LC-MS Plate for analysis. Before quantitative analysis, the compound was tuned in LC/MS machine to get the optimized MS condition. Liquid chromatography was performed on a Luna C18 column (Phenomenex U.S.A, Torrance, Calif.) (2×50 mm, 5 μM). % of the compound remaining (by area) at each time point is calculated with respect to time 0 min. Plot % remaining against time (min) to obtain the curve and use the Prism software to obtain the t1/2.

[7] = system: HEP3B; experiment: Cell-based proliferation assay for GI50 (CyQUANT), HEP3B; conditions: Homo sapiens, 96 h treatment, read-out: Cellular or Growth Inhibition Activity, GI50, HEP3B
Description: as §1

[8] = system: acetylated histone H3; experiment: Histone H3 acetylation assay (immuno-blotting) in Colo205 cells; format: cell-based, Human; conditions: 10 μM, 24 h, western-blot
Description: A hallmark of histone deacetylase (HDAC) inhibition is the increase in the acetylation level of histones. Histone acetylation, including H3, H4 and H2A can be detected by immuno-blotting (western-blot). Colo205 cells, approximately 5×10^5 cells, were seeded in the previously described medium, cultivated for 24 h and subsequently treated with HDAC inhibitory agents and a positive control at a final concentration of 10 μM. After 24 h, cells were harvested and lysed according to the instruction from Sigma Mammalian Cell Lysis Kit. The protein concentration was quantified using BCA method (Sigma Pte Ltd). The protein lysate was separated using 4-12% bis-tris SDS-PAGE gel (Invitrogen Pte Ltd) and was transferred onto PVDF membrane (BioRad Pte Ltd). The membrane was probed using primary antibody specific for acetylated histone H3 (Upstate Pte Ltd). The detection antibody, goat anti rabbit antibody conjugated with HRP was used according to the manufacturing instruction (Pierce Pte Ltd). After removing the detection antibody from the membrane, an enhanced chemiluminescent substrate for detection of HRP (Pierce Pte Ltd) was added onto the membrane. After removing the substrate, the membrane was exposed to an X-ray film (Kodak) for 1 sec-20 mins. The X-ray film was developed using the X-ray film processor. The density of each band observed on the developed film could be qualitatively analyzed using UVP Bioimaging software (UVP, Inc, Upland, Calif.). The values were then normalized against the density of actin in the corresponding samples to obtain the expression of the protein.

T1 sequence (Q13547 whole entry): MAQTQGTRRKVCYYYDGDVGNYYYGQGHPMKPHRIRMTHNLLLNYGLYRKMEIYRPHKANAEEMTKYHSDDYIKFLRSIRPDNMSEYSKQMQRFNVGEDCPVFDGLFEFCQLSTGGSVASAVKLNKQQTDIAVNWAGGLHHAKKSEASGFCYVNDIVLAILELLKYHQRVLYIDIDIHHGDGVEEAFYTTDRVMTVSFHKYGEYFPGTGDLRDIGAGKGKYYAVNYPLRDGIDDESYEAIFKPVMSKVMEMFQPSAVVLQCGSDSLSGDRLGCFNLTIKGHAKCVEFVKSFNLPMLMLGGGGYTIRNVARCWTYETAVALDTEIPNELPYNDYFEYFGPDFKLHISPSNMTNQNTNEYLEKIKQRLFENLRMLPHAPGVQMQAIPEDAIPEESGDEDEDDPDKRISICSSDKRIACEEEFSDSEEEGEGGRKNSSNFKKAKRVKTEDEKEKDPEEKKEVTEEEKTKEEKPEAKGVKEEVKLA

| Compound | GI50 [1] | GI50 [2] | GI50 [3] | GI50 [4] | IC50 [5] | half-life at 5 μM [6] | GI50 [7] | Histone Acetylation activities (Histone-3) [8] |
| --- | --- | --- | --- | --- | --- | --- | --- | --- |
| CC/C=C\CCc1nc2cc(/C=C/C(=O)NO)ccc2n1CC(C)(C)CN(C)C [Compound 22, 3-[1-(3-Dimethylamino-2,2-dimethyl-propyl)-2-hex-3-enyl-1H-benzoimidazol-5-yl]-N-hydroxy-acrylamide] | 750 nM | < 500 nM | < 500 nM | 1000 to 5000 nM | 64 nM |  |  |  |
| CC(Cc1nc2cc(/C=C/C(=O)NO)ccc2n1CC(C)(C)CN(C)C)CC(C)(C)C (stereo not shown) [Compound 23, 3-[1-(3-Dimethylamino-2,2-dimethyl-propyl)-2-(2,4,4-trimethyl-pentyl)-1H-benzoimidazol-5-yl]-N-hydroxy-acrylamide] | 190 nM | < 500 nM | < 500 nM | 500 to 1000 nM | 45 nM |  |  |  |
| CC/C=C\CCc1nc2cc(/C=C/C(=O)NO)ccc2n1CCNCC [Compound 30, 3-[1-(2-Ethylamino-ethyl)-2-hex-3-enyl-1H-benzoimidazol-5-yl]-N-hydroxy-acrylamide] | 310 nM | < 500 nM | < 500 nM | 500 to 1000 nM |  |  |  |  |
| CCCCc1nc2cc(/C=C/C(=O)NO)ccc2n1CCNCC [Compound 44, 3-[2-Butyl-1-(2-ethylamino-ethyl)-1H-benzoimidazol-5-yl]-N-hydroxy-acrylamide] | 870 nM | 500 to 1000 nM | < 500 nM | 1000 to 5000 nM | 54 nM | > 30 min |  |  |
| CCCCCCc1nc2cc(/C=C/C(=O)NO)ccc2n1CCNC(C)C [Compound 50, 3-[2-Hexyl-1-(2-isopropylamino-ethyl)-1H-benzoimidazol-5-yl]-N-hydroxy-acrylamide] | 170 nM | < 500 nM | < 500 nM | < 500 nM |  |  |  |  |
| CCCCCCc1nc2cc(/C=C/C(=O)NO)ccc2n1CCNCC [Compound 52, 3-[1-(2-Ethylamino-ethyl)-2-hexyl-1H-benzoimidazol-5-yl]-N-hydroxy-acrylamide] | 210 nM | < 500 nM | < 500 nM | < 500 nM | 25 nM | > 30 min |  |  |
| CCCCCCc1nc2cc(/C=C/C(=O)NO)ccc2n1CCN(C)C [Compound 58, 3-[1-(2-Dimethylamino-ethyl)-2-hexyl-1H-benzoimidazol-5-yl]-N-hydroxy-acrylamide] | 380 nM | < 500 nM | < 500 nM | < 500 nM | 30 nM | > 30 min | < 500 nM |  |
| CCNCCn1c(CCC(C)(C)C)nc2cc(/C=C/C(=O)NO)ccc21 [Compound 63, 3-[1-(2-ethylamino-ethyl)-2-(3,3-dimethyl-butyl)-1H-benzoimidazol-5-yl]-N-hydroxy-acrylamide] | 540 nM |  |  |  | 51 nM | > 30 min |  | Active |
| CCCCCc1nc2cc(/C=C/C(=O)NO)ccc2n1CCNCC [Compound 68, 3-[1-(2-Ethylamino-ethyl)-2-pentyl-1H-benzoimidazol-5-yl]-N-hydroxy-acrylamide] | 520 nM |  |  |  | 34 nM | > 30 min |  | Active |
| CCCCCCc1nc2cc(/C=C/C(=O)NO)ccc2n1CCNC [Compound 74, 3-[2-Hexyl-1-(2-methylamino-ethyl)-1H-benzoimidazol-5-yl]-N-hydroxy-acrylamide] | 550 nM |  |  |  | 28 nM | > 30 min |  | Active |
| CCN(CCn1cnc2cc(/C=C/C(=O)NO)ccc21)CCC(C)(C)C [Compound 111, 3-(1-{2-[(3,3-Dimethyl-butyl)-ethyl-amino]-ethyl}-1H-benzoimidazol-5-yl)-N-hydroxy-acrylamide] | 210 nM |  |  |  | 29 nM |  | < 500 nM |  |

The next lines start with results.

| GI50 [1] | GI50 [2] | GI50 [3] | GI50 [4] | IC50 [5] | half-life at 5 μM [6] | GI50 [7] | Compound | Histone Acetylation activities (Histone-3) [8] |
| --- | --- | --- | --- | --- | --- | --- | --- | --- |
| 810 nM | 1000 to 5000 nM | 500 to 1000 nM | 1000 to 5000 nM |  |  |  | CCN(CC)CCn1c(CC(C)C)nc2cc(/C=C/C(=O)NO)ccc21 [Compound 7, 3-[1-(2-Diethylamino-ethyl)-2-isobutyl-1H-benzoimidazol-5-yl]-N-hydroxy-acrylamide] |  |
| 160 nM | < 500 nM | < 500 nM | < 500 nM | 27 nM | > 30 min |  | CCNCCn1c(CC(C)CC(C)(C)C)nc2cc(/C=C/C(=O)NO)ccc21 (stereo not shown) [Compound 40, 3-[1-(2-Ethylamino-ethyl)-2-(2,4,4-trimethyl-pentyl)-1H-benzoimidazol-5-yl]-N-hydroxy-acrylamide] |  |
| 480 nM | < 500 nM | < 500 nM | < 500 nM | 49 nM | > 30 min | 500 to 1000 nM | CCCCc1nc2cc(/C=C/C(=O)NO)ccc2n1CCNC(C)C [Compound 46, 3-[2-Butyl-1-(2-isopropylamino-ethyl)-1H-benzoimidazol-5-yl]-N-hydroxy-acrylamide] |  |
| 560 nM |  |  |  | 78 nM |  |  | CCCCCc1nc2cc(/C=C/C(=O)NO)ccc2n1CCN(C)C [Compound 65, 3-[1-(2-Dimethylamino-ethyl)-2-pentyl-1H-benzoimidazol-5-yl]-N-hydroxy-acrylamide] | Active |
| 240 nM | < 500 nM | < 500 nM | < 500 nM | 40 nM | > 30 min |  | CCCCCc1nc2cc(/C=C/C(=O)NO)ccc2n1CCNC(C)C [Compound 71, N-Hydroxy-3-[1-(2-isopropylamino-ethyl)-2-pentyl-1H-benzoimidazol-5-yl]-acrylamide] | Active |
